Data as given in ChEMBL document CHEMBL3244393, “6-aminopyrazolo[4,3-c]pyridin-4(5H)-one, a novel analogue of guanine” (J Med Chem, 1977).
Calls of active or inactive are those of the source.

Columns and labels:
Human alphaherpesvirus 1 = assay: Antiviral activity against Herpes virus type 1 infected in human KB cells assessed as inhibition of virus-induced cytopathic effect; format: functional, organism-based
Human respirovirus 3 = assay: Antiviral activity against Parainfluenza virus type 3 infected in human KB cells assessed as inhibition of virus-induced cytopathic effect; format: functional, organism-based
KB = assay: Antiviral activity against Rhinovirus type 13 infected in human KB cells assessed as inhibition of virus-induced cytopathic effect; format: functional, cell-based; conditions: Human rhinovirus A13

Measured: Activity

Nc1cc2[nH]ncc2c(=O)[nH]1
inactive: all assays above
